Reference: US5698411A, “Method for determining activity of enzymes in metabolically active whole cells” (priority 1995, dated 1997)

Key:
Format in all cases: cell-based, human
lymphocytes [1] = test: enzyme activity with fluorogenic substrate, normal lymphocytes (Table 3A)
lymphocytes [2] = test: aberrant enzyme activities in febrile children, lymphocytes (Table 7)
monocytes = test: aberrant enzyme activities in febrile children, monocytes (Table 7)
granulocytes [3] = test: aberrant enzyme activities in febrile children, granulocytes (Table 7)
[4] = system: metabolically active whole cell; test: substrate panel in normals and HIV + patients, TB infection (Table 4); design: unit not given here
Procedure: A panel of assay compounds are assembled consisting of Ala-aminopeptidase and Lys-aminopeptidase, Dipeptidyl peptidase IV (Ala-Ala)2 rhodamine 110 and Cathepsin D to indicate possible TB infection in AIDS related cases.
A panel Of enzymatic substrates is performed consisting of Ala-aminopeptidase and Lys-aminopeptidase, Dipeptidyl peptidase IV (Ala-Ala)2 rhodamine 110 and Cathepsin D to indicate possible TB infection in AIDS related cases.

lymphocytes [5] = test: peptidase activity in leukemia and non-leukemia patients, lymphocytes (Table 6C); design: unit not given here
Text: (§1) Artificial intelligence was used to analyze data of cellular enzyme functions, and determine normal and disease states. Peptidases were used to distinguish leukemia from non-leukemia (output pattern). For input patterns lymphocyte and granulocyte cell types were used with aminopeptidases, cathepsins and dipeptidylpeptidase enzyme activities. In this Example, illustrated in Tables 6A-6C, three normals and three leukemia patients were used as known output patterns for the neural network to learn (in practice, the larger the learning set the more accurate unknown prediction will be). Unknowns were then presented to the learned algorithm as shown in the test case examples. Clinical diagnosis was confirmed by physicians. The trained neural network was able to correctly classify the leukemia from the non-leukemia.

granulocytes [6] = test: peptidase activity in leukemia and non-leukemia patients, granulocytes (Table 6C); design: unit not given here
Text: as §1

O=C1OC2(c3ccc(OP(=O)(O)O)cc3Oc3cc(OP(=O)(O)O)ccc32)c2ccccc21 [DPO4, (PO4)2 fluorescein]
NORMAL LEUKOCYTE ENZYME ACTIVITY LYMPHS Mean (lymphocytes [1]): 54.29
aberrant enzyme activity, LYMPHS (lymphocytes [2]; P88 Enteritis): .smallcircle.
aberrant enzyme activity, LYMPHS (lymphocytes [2]; P89 Viral Stomatitis): .smallcircle.
aberrant enzyme activity, LYMPHS (lymphocytes [2]; P92 Adenitis): .smallcircle.
aberrant enzyme activity, LYMPHS (lymphocytes [2]; P95 Viral Syndrome): .smallcircle.
aberrant enzyme activity, LYMPHS (lymphocytes [2]; P96 Viral Syndrome): - (>0.25 Decrease over normal range)
aberrant enzyme activity, LYMPHS (lymphocytes [2]; P97 Pyelonephritis): .smallcircle.
aberrant enzyme activity, LYMPHS (lymphocytes [2]; P99 Viral Syndrome): .smallcircle.
aberrant enzyme activity, LYMPHS (lymphocytes [2]; P101 Fever -- Unknown Origin): .smallcircle.
aberrant enzyme activity, LYMPHS (lymphocytes [2]; P102 UTI): .smallcircle.
aberrant enzyme activity, LYMPHS (lymphocytes [2]; P103 Viral Syndrome): .smallcircle.
aberrant enzyme activity, MONOS (monocytes; P88 Enteritis): .smallcircle.
aberrant enzyme activity, MONOS (monocytes; P89 Viral Stomatitis): + (>0.25 Increase over normal range)
aberrant enzyme activity, MONOS (monocytes; P92 Adenitis): + (>0.25 Increase over normal range)
aberrant enzyme activity, MONOS (monocytes; P95 Viral Syndrome): + (>0.25 Increase over normal range)
aberrant enzyme activity, MONOS (monocytes; P97 Pyelonephritis): .smallcircle.
aberrant enzyme activity, MONOS (monocytes; P99 Viral Syndrome): .smallcircle.
aberrant enzyme activity, MONOS (monocytes; P101 Fever -- Unknown Origin): + (>0.25 Increase over normal range)
aberrant enzyme activity, MONOS (monocytes; P102 UTI): .smallcircle.
aberrant enzyme activity, MONOS (monocytes; P103 Viral Syndrome): + (>0.25 Increase over normal range)
aberrant enzyme activity, GRANS (granulocytes [3]; P88 Enteritis): .smallcircle.
aberrant enzyme activity, GRANS (granulocytes [3]; P89 Viral Stomatitis): + (>0.25 Increase over normal range)
aberrant enzyme activity, GRANS (granulocytes [3]; P92 Adenitis): + (>0.25 Increase over normal range)
aberrant enzyme activity, GRANS (granulocytes [3]; P95 Viral Syndrome): .smallcircle.
aberrant enzyme activity, GRANS (granulocytes [3]; P96 Viral Syndrome): .smallcircle.
aberrant enzyme activity, GRANS (granulocytes [3]; P97 Pyelonephritis): .smallcircle.
aberrant enzyme activity, GRANS (granulocytes [3]; P99 Viral Syndrome): .smallcircle.
aberrant enzyme activity, GRANS (granulocytes [3]; P101 Fever -- Unknown Origin): + (>0.25 Increase over normal range)
aberrant enzyme activity, GRANS (granulocytes [3]; P102 UTI): .smallcircle.
aberrant enzyme activity, GRANS (granulocytes [3]; P103 Viral Syndrome): + (>0.25 Increase over normal range)

CC(=O)Oc1ccc2c(c1)Oc1cc(OC(C)=O)ccc1C21OC(=O)c2ccccc21 [FDA-NAF, fluorescein diacetate, reference compound]
NORMAL LEUKOCYTE ENZYME ACTIVITY LYMPHS Mean (lymphocytes [1]): 17.98
aberrant enzyme activity, LYMPHS (lymphocytes [2]; P88 Enteritis): .smallcircle.
aberrant enzyme activity, LYMPHS (lymphocytes [2]; P97 Pyelonephritis): .smallcircle.
aberrant enzyme activity, LYMPHS (lymphocytes [2]; P99 Viral Syndrome): .smallcircle.
aberrant enzyme activity, LYMPHS (lymphocytes [2]; P102 UTI): .smallcircle.
aberrant enzyme activity, MONOS (monocytes; P88 Enteritis): .smallcircle.
aberrant enzyme activity, MONOS (monocytes; P97 Pyelonephritis): .smallcircle.
aberrant enzyme activity, GRANS (granulocytes [3]; P88 Enteritis): .smallcircle.
aberrant enzyme activity, GRANS (granulocytes [3]; P97 Pyelonephritis): .smallcircle.
aberrant enzyme activity, GRANS (granulocytes [3]; P102 UTI): .smallcircle.

O=C1OC2(c3ccc(NC(=O)[C@@H]4CCCN4)cc3Oc3cc(NC(=O)[C@@H]4CCCN4)ccc32)c2ccccc21 [PRO, (H-L-Pro)2 --Rho 110 .2TFA]
MEAN DELTA FL ([4]; HIV + PATIENTS): 11.0
MEAN DELTA FL ([4]; NORMALS): 11.4
enzyme activity, Lymphs (lymphocytes [5]; J4 11/21/91 acute leuk.): 0.47
enzyme activity, Lymphs (lymphocytes [5]; J4 12/2/91 A L): 0.29
enzyme activity, Lymphs (lymphocytes [5]; J4 12/3/91 acute leuk.): 0.24
enzyme activity, Lymphs (lymphocytes [5]; J5 11/27/91 A M L): 0.89
enzyme activity, Lymphs (lymphocytes [5]; J19 11/27/91 C L L): 0.44
enzyme activity, Lymphs (lymphocytes [5]; J22 12/2/91 A M L): 0.40
enzyme activity, Lymphs (lymphocytes [5]; J22 12/9/91 A M L): 0.44
enzyme activity, Lymphs (lymphocytes [5]; N191 normal): 0.69
enzyme activity, Lymphs (lymphocytes [5]; N193 normal): 0.95
enzyme activity, Lymphs (lymphocytes [5]; N194 normal): 0.86
enzyme activity, Lymphs (lymphocytes [5]; N195 normal): 0.88
enzyme activity, Lymphs (lymphocytes [5]; N197 normal): 0.57
enzyme activity, Lymphs (lymphocytes [5]; N200 normal): 0.74
enzyme activity, Lymphs (lymphocytes [5]; N201 normal): 1.10
enzyme activity, Lymphs (lymphocytes [5]; N202 normal): 0.89
enzyme activity, Lymphs (lymphocytes [5]; P68 tachycardia): 0.70
enzyme activity, Lymphs (lymphocytes [5]; P69 pancreatic CA): 0.66
enzyme activity, Lymphs (lymphocytes [5]; P70 cirrhosis/hemobilia): 0.56
enzyme activity, Lymphs (lymphocytes [5]; P71 ac. pyelonephritis): 0.52
enzyme activity, Grans (granulocytes [6]; J19 11/27/91 C L L): 5.50
enzyme activity, Grans (granulocytes [6]; N195 normal): 4.70
enzyme activity, Grans (granulocytes [6]; P69 pancreatic CA): 5.70
enzyme activity, Grans (granulocytes [6]; P70 cirrhosis/hemobilia): 0.66
aberrant enzyme activity, LYMPHS (lymphocytes [2]; P92 Adenitis): .smallcircle.
aberrant enzyme activity, LYMPHS (lymphocytes [2]; P97 Pyelonephritis): .smallcircle.
aberrant enzyme activity, LYMPHS (lymphocytes [2]; P103 Viral Syndrome): .smallcircle.
aberrant enzyme activity, MONOS (monocytes; P92 Adenitis): .smallcircle.
aberrant enzyme activity, MONOS (monocytes; P97 Pyelonephritis): .smallcircle.
aberrant enzyme activity, MONOS (monocytes; P103 Viral Syndrome): .smallcircle.
aberrant enzyme activity, GRANS (granulocytes [3]; P92 Adenitis): .smallcircle.
aberrant enzyme activity, GRANS (granulocytes [3]; P97 Pyelonephritis): .smallcircle.
aberrant enzyme activity, GRANS (granulocytes [3]; P103 Viral Syndrome): .smallcircle.

CC(C)[C@H](N)C(=O)N[C@@H](CO)C(=O)Nc1ccc2c(c1)Oc1cc(NC(=O)[C@H](CO)NC(=O)[C@@H](N)C(C)C)ccc1C21OC(=O)c2ccccc21 [VS, (H-L-Val--Ser)2 Rho 110 .2TFA]
MEAN DELTA FL ([4]; HIV + PATIENTS): 32.5
MEAN DELTA FL ([4]; NORMALS): 24.6
enzyme activity, Lymphs (lymphocytes [5]; J4 11/21/91 acute leuk.): 0.05
enzyme activity, Lymphs (lymphocytes [5]; J4 12/2/91 A L): 0.03
enzyme activity, Lymphs (lymphocytes [5]; J4 12/3/91 acute leuk.): 0.04
enzyme activity, Lymphs (lymphocytes [5]; J5 11/27/91 A M L): 0.05
enzyme activity, Lymphs (lymphocytes [5]; J19 11/27/91 C L L): 0.01
enzyme activity, Lymphs (lymphocytes [5]; J22 12/2/91 A M L): 0.01
enzyme activity, Lymphs (lymphocytes [5]; J22 12/9/91 A M L): 0.04
enzyme activity, Lymphs (lymphocytes [5]; N191 normal): 0.14
enzyme activity, Lymphs (lymphocytes [5]; N192 normal): 0.08
enzyme activity, Lymphs (lymphocytes [5]; N193 normal): 0.09
enzyme activity, Lymphs (lymphocytes [5]; N194 normal): 0.07
enzyme activity, Lymphs (lymphocytes [5]; N195 normal): 0.06
enzyme activity, Lymphs (lymphocytes [5]; N197 normal): 0.11
enzyme activity, Lymphs (lymphocytes [5]; N199 normal): 0.03
enzyme activity, Lymphs (lymphocytes [5]; N200 normal): 0.06
enzyme activity, Lymphs (lymphocytes [5]; N201 normal): 0.07
enzyme activity, Lymphs (lymphocytes [5]; N202 normal): 0.04
enzyme activity, Lymphs (lymphocytes [5]; N206 normal): 0.28
enzyme activity, Lymphs (lymphocytes [5]; P68 tachycardia): 0.05
enzyme activity, Lymphs (lymphocytes [5]; P69 pancreatic CA): 0.18
enzyme activity, Lymphs (lymphocytes [5]; P70 cirrhosis/hemobilia): 0.04
enzyme activity, Lymphs (lymphocytes [5]; P71 ac. pyelonephritis): 0.08
enzyme activity, Grans (granulocytes [6]; J4 11/21/91 acute leuk.): 0.37
enzyme activity, Grans (granulocytes [6]; J4 12/2/91 A L): 0.14
enzyme activity, Grans (granulocytes [6]; J4 12/3/91 acute leuk.): 0.23
enzyme activity, Grans (granulocytes [6]; J22 12/2/91 A M L): 0.22
enzyme activity, Grans (granulocytes [6]; J22 12/9/91 A M L): 0.32
enzyme activity, Grans (granulocytes [6]; N191 normal): 0.64
enzyme activity, Grans (granulocytes [6]; N192 normal): 0.40
enzyme activity, Grans (granulocytes [6]; N193 normal): 0.44
enzyme activity, Grans (granulocytes [6]; N194 normal): 0.29
enzyme activity, Grans (granulocytes [6]; N195 normal): 0.37
enzyme activity, Grans (granulocytes [6]; N197 normal): 0.58
enzyme activity, Grans (granulocytes [6]; N199 normal): 0.14
enzyme activity, Grans (granulocytes [6]; N200 normal): 0.24
enzyme activity, Grans (granulocytes [6]; N201 normal): 0.32
enzyme activity, Grans (granulocytes [6]; N202 normal): 0.24
enzyme activity, Grans (granulocytes [6]; P68 tachycardia): 0.33
enzyme activity, Grans (granulocytes [6]; P69 pancreatic CA): 0.57
enzyme activity, Grans (granulocytes [6]; P70 cirrhosis/hemobilia): 0.26
enzyme activity, Grans (granulocytes [6]; P71 ac. pyelonephritis): 0.69
aberrant enzyme activity, LYMPHS (lymphocytes [2]; P95 Viral Syndrome): .smallcircle.
aberrant enzyme activity, LYMPHS (lymphocytes [2]; P96 Viral Syndrome): .smallcircle.
aberrant enzyme activity, LYMPHS (lymphocytes [2]; P97 Pyelonephritis): .smallcircle.
aberrant enzyme activity, LYMPHS (lymphocytes [2]; P103 Viral Syndrome): .smallcircle.
aberrant enzyme activity, MONOS (monocytes; P96 Viral Syndrome): .smallcircle.
aberrant enzyme activity, MONOS (monocytes; P103 Viral Syndrome): .smallcircle.
aberrant enzyme activity, GRANS (granulocytes [3]; P96 Viral Syndrome): .smallcircle.
aberrant enzyme activity, GRANS (granulocytes [3]; P97 Pyelonephritis): .smallcircle.
aberrant enzyme activity, GRANS (granulocytes [3]; P103 Viral Syndrome): .smallcircle.
